Reference: patent US4014999A, “Halo-steroidal thioketals for treating inflammation” (Ortho Pharmaceutical Corporation, priority 1976, dated 1977)

Test system: left hind paw inflammation in rats with adjuvant arthritis
Assay: Therapeutic Treatment of Adjuvant Arthritis in Rats (left hind paw inflammation)
Assay type: in vivo, Carworth Wistar (Lewis) rats
Method: Carworth Wistar (Lewis) rats weighing approximately 200 grams are anesthetized with ether, weighed and their hind paws measured by means of a mercury displacement method. The left hind paw is injected intradermally with heat-killed Mycobacterium tuberculosis in white mineral oil. Measurements of body weight and paw volume are obtained on days 2, 5, 10, 15, 20 and 25. Therapeutic treatment is started on day 15.
Following the injection with Mycobacterium tuberculosis, a primary inflammation develops immediately in the injected paw. Secondary inflammation of the joints of the other legs and feet, nodules on the tail and red spots on the ears develop about day 10-15. The object of the test is to determine the anti-inflammatory effects of the drug treatments.
Groups of rats (five rats/group) are treated as follows: One group receives no Mycobacterium tuberculosis and is the negative control group. One group receives Mycobacterium tuberculosis but no anti-inflammatory drug and is the positive control group. Other groups receive Mycobacterium tuberculosis and either oral or topical test compounds or standard anti-inflammatory agents beginning on day 15 and are considered experimental groups. Experimental anti-inflammatory and standard anti-inflammatory compounds are administered either once every five days, i.e., after grading on days 15 and 20, or once/day on days 15-24.
In the topical studies a measured amount of drug is mixed into about 0.5 ml of SILASTIC* Medical Adhesive (or other appropriate vehicle) and applied to cover the left hind paw. Rats so treated are housed individually to eliminate the removal of the medication by another rat. The following, Tables 1 and 2 illustrate the anti-inflammatory potency and efficacy of the oral and topical treatments.

[1] = oral, once per day, 0.00375 mg/kg
[2] = oral, once per day, 0.00750 mg/kg
[3] = oral, once per day, 0.01500 mg/kg
[4] = oral, once per day, 0.03000 mg/kg
[5] = oral, once per day, 0.06250 mg/kg
[6] = oral, once per day, 0.12500 mg/kg

| SMILES | Percent Inhibition of Left Hind Paw Inflammation (oral, once every five days, 0.075 mg/kg/5 days) [%] | Percent Inhibition of Left Hind Paw Inflammation (oral, once every five days, 0.150 mg/kg/5 days) [%] | Percent Inhibition of Left Hind Paw Inflammation (oral, once every five days, 0.300 mg/kg/5 days) [%] | Percent Inhibition of Left Hind Paw Inflammation (oral, once every five days, 0.625 mg/kg/5 days) [%] | Percent Inhibition of Left Hind Paw Inflammation (oral, once every five days, 1.250 mg/kg/5 days) [%] | Percent Inhibition of Left Hind Paw Inflammation (oral, once every five days, 2.500 mg/kg/5 days) [%] | Percent Inhibition of Left Hind Paw Inflammation [1] [%] | Percent Inhibition of Left Hind Paw Inflammation [2] [%] | Percent Inhibition of Left Hind Paw Inflammation [3] [%] | Percent Inhibition of Left Hind Paw Inflammation [4] [%] | Percent Inhibition of Left Hind Paw Inflammation [5] [%] | Percent Inhibition of Left Hind Paw Inflammation [6] [%] | Percent Inhibition of Left Hind Paw Inflammation (oral, once per day, 0.25000 mg/kg) [%] | Percent Inhibition of Left Hind Paw Inflammation (topical (in SILASTIC Medical Adhesive), once every five days, 0.300 mg/kg/5 days) [%] | Percent Inhibition of Left Hind Paw Inflammation (topical (in SILASTIC Medical Adhesive), once every five days, 0.625 mg/kg/5 days) [%] | Percent Inhibition of Left Hind Paw Inflammation (topical (in SILASTIC Medical Adhesive), once every five days, 1.250 mg/kg/5 days) [%] | Percent Inhibition of Left Hind Paw Inflammation (topical (in SILASTIC Medical Adhesive), once every five days, 2.500 mg/kg/5 days) [%] |
| --- | --- | --- | --- | --- | --- | --- | --- | --- | --- | --- | --- | --- | --- | --- | --- | --- | --- |
| CC1(C)O[C@@H]2C[C@H]3[C@@H]4C[C@H](F)C5=CC6(C=C[C@]5(C)[C@@]4(F)[C@@H](O)C[C@]3(C)[C@]2(C(=O)CO)O1)SCCS6 [Compound A, 6α,9-difluoropregna-1,4-diene-11β,16α,17,21-tetrol-3,20-dione-3-ethylenedithioketal-16,17-acetonide] | 14.7 | 15.3 | 18.1 | 29.0 | 35.0 | 44.3 | 5 | 9 | 43 | 34 | 60 | 83 | 95 | 31.1 | 52.6 | 57.5 | 64.5 |
| CC1(C)O[C@@H]2C[C@H]3[C@@H]4C[C@H](F)C5=CC(=O)C=C[C@]5(C)[C@@]4(F)[C@@H](O)C[C@]3(C)[C@]2(C(=O)CO)O1 [Compound B, fluocinolone acetonide, reference compound] |  |  |  |  |  |  | 19 | 15 | 32 | 66 | 76 | 64 |  |  |  |  |  |
